From PMC7689250, “Synthetic Peptide Libraries Designed From a Minimal Alpha-Helical Domain of AS-48-Bacteriocin Homologs Exhibit Potent Antibacterial Activity” (Frontiers in Microbiology, 2020)
Where two headings read alike, the source gives them in different places. Residues, ends and D or L forms follow the SMILES beside them.

Columns and labels:
E. coli (BL21) = format: cell-based, Escherichia coli
Method: (§1) Peptides were screened against Escherichia coli (BL21), Streptococcus pyogenes (M1T1 5448, hereby referred to as M1), Pseudomonas aeruginosa (PAO1), and Staphylococcus aureus (USA300). Overnight bacterial cultures were grown in optimal media for each species: Luria-Bertani (LB) broth for E. coli, P. aeruginosa, and S. aureus, and Todd-Hewitt (TH) broth for S. pyogenes. Cultures were pelleted and re-suspended in Mueller-Hinton (MH) broth for peptide screens or minimal inhibitory concentration (MIC) assays, with 1 × 10^6 CFU/mL bacteria added per well ([Wiegand et al., 2008]). MICs for each parent peptide were identified against each bacterial strain as previously described ([Fields et al., 2018]). Members of each peptide library were screened against each bacterial strain at half of the MIC of the corresponding parent peptide to identify library members with increased antimicrobial activity relative to the parent peptide. […] Minimal bactericidal concentrations (MBCs) were determined following the respective MIC assays by plating aliquots from wells corresponding to each peptide concentration from the 96-well plate used for the MIC on species-appropriate agar. Plates were incubated at 37°C overnight, and MBCs were identified as the lowest concentrations of peptide at which no colonies were obtained. A Synergy H1 Microplate Reader (BioTek, Winooski, VT, United States) was used to determine the MICs and identify peptides with greater antimicrobial activity than the corresponding parent peptide by measuring OD 600 of the bacterial cultures in 96-well microtiter plates.

S. pyogenes (M1) = format: cell-based, Streptococcus pyogenes; details: for MBC: M1
Method: as §1

S. aureus (USA300) = format: cell-based, Staphylococcus aureus
Method: as §1

P. aeruginosa (PAO1) = format: cell-based, Pseudomonas aeruginosa; details: for MBC: PAO1; for MIC: PAO1, 16 h
Method: as §1

sheep erythrocytes = format: cell-based; details: red cells of sheep, 1 h
Method: To determine if peptide variants were hemolytic, fresh defibrinated whole sheep blood (Hardy Diagnostics) was washed three times in cold PBS, and washed blood was diluted 1:25 in PBS. Treatments were applied at a 1:10 ratio of sample:blood, where the sample was either 10% Triton, PBS, or a specific peptide concentration corresponding to concentrations used in the MIC assays. Treatments were incubated with the blood for 1 h at 37°C. Following incubation, samples were centrifuged at […] for 10 min at 4°C, and the absorbance of the supernatants at 450 nm was measured on the Synergy H1 Microplate Reader to measure the release of hemoglobin. Percent hemolysis was quantified by normalizing to the negative and positive controls.

| SMILES | MBC (E. coli (BL21); BL21) [µM] | MIC (E. coli (BL21); BL21, 16 h) [µM] | MBC (S. pyogenes (M1)) [µM] | MIC (S. pyogenes (M1); M1, 16 h) [µM] | MBC (S. aureus (USA300); USA300) [µM] | MIC (S. aureus (USA300); USA300, 16 h) [µM] | MBC (P. aeruginosa (PAO1)) [µM] | MIC (P. aeruginosa (PAO1)) [µM] | Percent Hemolysis (sheep erythrocytes) [%] | MIC (S. pyogenes (M1); S. pyogenes M1) [µM] | MBC (E. coli (BL21); E. coli BL21) [µM] | MIC (E. coli (BL21); E. coli BL21) [µM] | MIC (S. pyogenes (M1); S. pyogenes M1, running text b43, unit printed nm) [µM] | MIC (S. aureus (USA300); USA300) [µM] |
| --- | --- | --- | --- | --- | --- | --- | --- | --- | --- | --- | --- | --- | --- | --- |
| CC[C@H](C)[C@H](NC(=O)[C@H](Cc1ccc(O)cc1)NC(=O)[C@H](CCCCN)NC(=O)[C@H](CCCCN)NC(=O)[C@H](CC(C)C)NC(=O)[C@H](CCC(=O)O)NC(=O)[C@H](CCCCN)NC(=O)[C@H](Cc1c[nH]c2ccccc12)NC(=O)[C@@H](NC(=O)[C@H](CCCNC(=N)N)NC(=O)[C@H](CCC(=O)O)NC(=O)[C@H](CO)NC(=O)CNC(=O)[C@H](C)N)[C@@H](C)CC)C(=O)N[C@@H](CCCCN)C(=O)N[C@@H](CCCCN)C(=O)NCC(=O)N[C@@H](CCCCN)C(=O)N[C@@H](CCCCN)C(=O)N[C@H](C(=O)N[C@H](C(=O)N[C@@H](CCCNC(=N)N)C(=O)N[C@@H](C)C(=O)N[C@@H](C)C(=O)N[C@@H](Cc1c[nH]c2ccccc12)C(=O)O)[C@@H](C)CC)C(C)C [Syn-enterocin-24] (H-AGSERIWKELKKYIKKGKKVIRAAW-OH; N-terminus and C-terminus assumed) | 2 | 2 | 16 | 16 | >128 | 64 | 16 | 8 | 10.5 | – | – | – | – | – |
| CC[C@H](C)[C@H](NC(=O)[C@H](CCCCN)NC(=O)[C@H](CCCCN)NC(=O)CNC(=O)[C@H](CCC(=O)O)NC(=O)[C@H](CC(N)=O)NC(=O)[C@@H](NC(=O)[C@@H](NC(=O)[C@H](CCCCN)NC(=O)[C@H](CCCCN)NC(=O)[C@H](CC(C)C)NC(=O)[C@H](CCCNC(=N)N)NC(=O)[C@H](CC(N)=O)NC(=O)[C@H](Cc1ccccc1)NC(=O)[C@@H](NC(=O)[C@H](CCCCN)NC(=O)[C@H](CCC(=O)O)NC(=O)[C@@H](NC(=O)[C@H](Cc1c[nH]c2ccccc12)NC(=O)[C@H](C)N)[C@@H](C)O)[C@@H](C)CC)[C@@H](C)O)[C@@H](C)CC)C(=O)N[C@@H](C)C(=O)N[C@@H](CCCCN)C(=O)N[C@@H](CCCNC(=N)N)C(=O)N[C@@H](C)C(=O)N[C@@H](Cc1c[nH]c2ccccc12)C(=O)O [Syn-larvacin-40] (H-AWTEKIFNRLKKTINEGKKIAKRAW-OH; N-terminus and C-terminus assumed) | 2 | 2 | 4 | 0.25 | 4 | 4 | 16 | 16 | 17.5 | – | – | – | – | – |
| CC[C@H](C)[C@H](NC(=O)[C@H](CCCCN)NC(=O)[C@H](CCCCN)NC(=O)[C@H](CCCCN)NC(=O)[C@H](CC(C)C)NC(=O)[C@H](Cc1ccccc1)NC(=O)[C@H](CCC(N)=O)NC(=O)[C@H](CCCNC(=N)N)NC(=O)[C@@H](NC(=O)[C@@H](NC(=O)[C@H](CCC(=O)O)NC(=O)[C@H](CCCCN)NC(=O)CNC(=O)[C@H](C)N)[C@@H](C)O)[C@@H](C)CC)C(=O)N[C@@H](CCC(N)=O)C(=O)N[C@@H](CCC(=O)O)C(=O)N[C@@H](Cc1c[nH]c2ccccc12)C(=O)N[C@@H](CCCCN)C(=O)N[C@@H](CCCCN)C(=O)N[C@@H](CCCNC(=N)N)C(=O)N[C@@H](C)C(=O)N[C@H](C(=O)N[C@H](C(=O)N[C@@H](C)C(=O)N[C@@H](Cc1c[nH]c2ccccc12)C(=O)O)[C@@H](C)CC)[C@@H](C)O [Syn-larvacin-44] (H-AGKETIRQFLKKKIQEWKKRATIAW-OH; N-terminus and C-terminus assumed) | 1 | 0.5 | 0.5 | 0.5 | 32 | 32 | 32 | 16 | 20.9 | – | – | – | – | – |
| CC[C@H](C)[C@H](NC(=O)[C@H](CCCCN)NC(=O)[C@H](CCCCN)NC(=O)[C@H](CCCCN)NC(=O)[C@H](CC(C)C)NC(=O)[C@H](CCCNC(=N)N)NC(=O)[C@H](CCC(N)=O)NC(=O)[C@H](Cc1ccccc1)NC(=O)[C@@H](NC(=O)[C@@H](NC(=O)[C@H](CCC(=O)O)NC(=O)[C@H](CCCCN)NC(=O)CNC(=O)[C@H](C)N)[C@@H](C)O)[C@@H](C)CC)C(=O)N[C@@H](CCC(N)=O)C(=O)N[C@@H](CCC(=O)O)C(=O)N[C@@H](CCCCN)C(=O)NCC(=O)N[C@@H](CCCCN)C(=O)N[C@@H](CCCNC(=N)N)C(=O)N[C@@H](C)C(=O)N[C@H](C(=O)N[C@H](C(=O)N[C@@H](Cc1c[nH]c2ccccc12)C(=O)N[C@@H](Cc1c[nH]c2ccccc12)C(=O)O)[C@@H](C)CC)[C@@H](C)O [Syn-larvacin-67] (H-AGKETIFQRLKKKIQEKGKRATIWW-OH; N-terminus and C-terminus assumed) | 4 | 4 | 0.25 | 0.25 | 64 | 64 | 32 | 16 | 16.3 | – | – | – | – | – |
| CC[C@H](C)[C@H](NC(=O)[C@H](CCCCN)NC(=O)[C@H](C)NC(=O)[C@H](CCCNC(=N)N)NC(=O)[C@H](CCCCN)NC(=O)CNC(=O)[C@H](CCCCN)NC(=O)[C@H](CCC(=O)O)NC(=O)[C@H](CCC(N)=O)NC(=O)[C@@H](NC(=O)[C@@H](NC(=O)[C@H](CCCCN)NC(=O)[C@H](CCCCN)NC(=O)[C@H](CC(C)C)NC(=O)[C@H](Cc1ccccc1)NC(=O)[C@H](CCC(N)=O)NC(=O)[C@H](CCCNC(=N)N)NC(=O)[C@@H](NC(=O)[C@@H](NC(=O)[C@H](CCC(=O)O)NC(=O)[C@H](CCCCN)NC(=O)CNC(=O)[C@H](C)N)[C@@H](C)O)[C@@H](C)CC)[C@@H](C)O)[C@@H](C)CC)C(=O)N[C@@H](Cc1c[nH]c2ccccc12)C(=O)N[C@@H](Cc1c[nH]c2ccccc12)C(=O)O [Syn-larvacin-69] (H-AGKETIRQFLKKTIQEKGKRAKIWW-OH; N-terminus and C-terminus assumed) | 16 | 2 | 0.5 | – | 16 | 16 | 32 | 32 | 12.5 | 0.125 | – | – | – | – |
| CC[C@H](C)[C@H](NC(=O)[C@H](CCCCN)NC(=O)[C@H](CCCCN)NC(=O)CNC(=O)[C@H](CCC(=O)O)NC(=O)[C@H](CCC(N)=O)NC(=O)[C@@H](NC(=O)[C@@H](NC(=O)[C@H](CCCCN)NC(=O)[C@H](CCCCN)NC(=O)[C@H](CC(C)C)NC(=O)[C@H](CCCNC(=N)N)NC(=O)[C@H](CCC(N)=O)NC(=O)[C@H](Cc1ccccc1)NC(=O)[C@@H](NC(=O)[C@H](CCCCN)NC(=O)[C@H](CCC(=O)O)NC(=O)[C@@H](NC(=O)CNC(=O)[C@H](C)N)[C@@H](C)O)[C@@H](C)CC)[C@@H](C)O)[C@@H](C)CC)C(=O)N[C@@H](C)C(=O)N[C@@H](CCCCN)C(=O)N[C@@H](CCCNC(=N)N)C(=O)N[C@@H](Cc1c[nH]c2ccccc12)C(=O)N[C@@H](Cc1c[nH]c2ccccc12)C(=O)O [Syn-larvacin-71] (H-AGTEKIFQRLKKTIQEGKKIAKRWW-OH; N-terminus and C-terminus assumed) | – | – | 0.125 | – | <0.25 | <0.25 | 32 | 16 | 20.6 | 0.125 | 0.25 | 0.25 | 0.125 | 0.25 |
| CC[C@H](C)[C@H](NC(=O)[C@H](CCCCN)NC(=O)CNC(=O)[C@H](Cc1ccccc1)NC(=O)[C@H](CCCCN)NC(=O)[C@H](CCCNC(=N)N)NC(=O)[C@H](CC(C)C)NC(=O)[C@H](Cc1ccc(O)cc1)NC(=O)[C@H](CCC(=O)O)NC(=O)[C@H](CC(C)C)NC(=O)[C@H](CC(C)C)NC(=O)[C@H](CCC(=O)O)NC(=O)[C@H](CCCCN)NC(=O)[C@@H](NC(=O)[C@H](CC(C)C)NC(=O)[C@H](CCCNC(=N)N)NC(=O)[C@H](CCC(N)=O)NC(=O)[C@H](C)NC(=O)CNC(=O)[C@@H](N)Cc1c[nH]c2ccccc12)[C@@H](C)O)C(=O)N[C@@H](C)C(=O)N[C@@H](CCCNC(=N)N)C(=O)N[C@@H](CCCCN)C(=O)N[C@@H](C)C(=O)N[C@@H](Cc1c[nH]c2ccccc12)C(=O)O [Syn-xiamencin-15] (H-WGAQRLTKELLEYLRKFGKIARKAW-OH; N-terminus and C-terminus assumed) | 2 | 2 | 1 | 1 | 128 | 64 | >128 | >128 | – | – | – | – | – | – |
